Legend:
Prostaglandin E2 (PGE2) = assay: Assay of PGE2 in keratinocytes treated with 10 μg/mL PMA; type: cell-based, human; settings: 0.1 μM; for PGE2 Mean / PGE2 Increase (%): 24 h pretreatment; for PGE2 Mean: then 10 μg/mL PMA overnight; for PGE2 Increase (%): versus PMA
Experimental: (§1) Release of the cytokines Interleukin-1 beta (IL1β) and Prostaglandin E2 (PGE2) was analysed. […] Inflammation was then induced by addition of 10 μg/mL PMA overnight. An assay of IL1β and PGE2 was then performed in the cell culture supernatants. In parallel, the number of biologically active cells was determined by a neutral red assay. The amount of cytokine measured for each condition was normalised to the number of living cells determined by the neutral red assay. The significance of the results was verified by a one-factor analysis of variance followed by Tukey's test (GraphPad PRISM software version 5.02, GraphPad Software, San Diego Calif. USA).

[1] = test system: Interleukin-1 beta (IL1β); assay: Assay of IL1β in keratinocytes treated with 10 μg/mL PMA; type: cell-based, human; settings: 0.1 μM, 24 h pretreatment; for IL1Beta Mean: then 10 μg/mL PMA overnight; for IL1Beta Increase (%): versus PMA
Experimental: as §1

[2] = test system: Normal human keratinocytes; assay: Production of reactive oxygen species (DCFH-DA) in keratinocytes treated with H2O2; type: cell-based; settings: for ROS Mean: 24 h preincubation and during 100 μM H2O2 20 min, normalised to living cells; for ROS Increase (%): versus 100 μM H2O2; for ROS production following H2O2 treatment (in words): antioxidant references, 10 μM quercetin or 500 μM vitamin C
Experimental: The antioxidant effect of the polyphenol-enriched extract of Vitex negundo is evaluated using the incorporation of DCFHDA (2′,7′-dichlorofluorescin diacetate) into keratinocytes in culture. This molecule is a nonfluorescent marker in an unoxidised state. Under oxidising conditions (in this case stress induced by hydrogen peroxide, H2O2), DCFHDA will be degraded to DCF, a molecule which will emit fluorescence. […] Normal human keratinocytes were preincubated for 24 hours in the presence of 0.0005%, 0.001% and 0.005% (w/v) concentrations of the polyphenol-enriched extract of Vitex negundo, and 0.016%, 0.03% and 0.16% monopropylene glycol (controls corresponding to the solvent concentrations contained in the concentrations of Vitex negundo extract studied), 10 μM quercetin or 500 μM vitamin C (the latter two molecules serving as antioxidant reference). The cells are then treated for 1 hour in the presence of 0.5 mM DCFH-DA. Oxidation is induced by addition of 100 μM H2O2 for 20 minutes. A second treatment with the tested products is performed simultaneously with H2O2 stress (at the same concentrations as the pretreatment). Lastly, a measurement of fluorescence density (DFU) corresponding to the amount of ROS is performed using a microplate reader. In parallel, the number of biologically active cells was determined by a neutral red assay. The amount of ROS (reactive oxygen species) measured for each condition was normalised to the number of living cells determined by the neutral red assay. The significance of the results was verified by a one-factor analysis of variance followed by Tukey's test (GraphPad PRISM software version 5.02, GraphPad Software, San Diego Calif. USA).

[3] = test system: human sensory neuron/old keratinocyte cocultures; assay: Neurite length of sensory neurons in neuron/keratinocyte co-cultures; type: cell-based; settings: 50 ng/mL
Experimental: Sensory neurons are derived from hiPS cells obtained from human fibroblasts. hiPS cells were cocultured with keratinocytes […]. The co-cultures were treated with the Vitex negundo extract at various concentrations (0.003%, 0.001%, 0.0005%, 0.0001%, 0.00005%, 0.00001% (w/v)), with 0.1% monopropylene glycol (extraction solvent control) and with 50 ng/mL nerve growth factor (NGF) serving as positive reference for dendrite elongation.
After 6 days of co-culture, the cells were fixed with 2% paraformaldehyde solution and then labelled with an anti-β-tubulin antibody. Labelling was observed using a fluorescence microscope and 20 images were acquired per co-culture. The length of the sensory neuron projections was measured and normalised by the number of labelled cell bodies. All statistics were done using the t-test and the ANOVA test (*p<0.05; **p<0.01; ***p<0.001).

Compound	PGE2 Mean (Prostaglandin E2 (PGE2))	PGE2 Increase (%) (Prostaglandin E2 (PGE2))	IL1Beta Mean [1]	IL1Beta Increase (%) [1] [%]	ROS production following H2O2 treatment (in words) [2]	also measured
C[C@@H]1C[C@H]2[C@@H]3CCC4=CC(=O)C=C[C@]4(C)[C@@]3(F)[C@@H](O)C[C@]2(C)[C@@]1(O)C(=O)CO [Dexamethasone, dexamethasone]	1339.332 (pg/mL)/OD neutral red	−43	0.120 (pg/mL)/OD neutral red	−34		
COc1ccc2c(c1)c(CC(=O)O)c(C)n2C(=O)c1ccc(Cl)cc1 [Indometacin, indomethacin]	416.328 (pg/mL)/OD neutral red	−82	0.172 (pg/mL)/OD neutral red	−5		release of PGE2 (in words) (Prostaglandin E2 (PGE2); pretreatment for 24 hours): significantly decreased
O=c1c(O)c(-c2ccc(O)c(O)c2)oc2cc(O)cc(O)c12 [quercetin]					significantly decreased	ROS Mean ([2]; 10 μmol/L): 24411 fluorescence units; ROS Increase (%) ([2]; 10 μmol/L): −82%
O=C1O[C@H]([C@@H](O)CO)C(O)=C1O [vitamin C]					significantly decreased	ROS Mean ([2]; 500 μM): 11940 fluorescence units; ROS Increase (%) ([2]; 500 μM): −91%
NGF: nerve growth factor (NGF) serving as positive reference for dendrite elongation						total neurite length and neurite length per cell (in words) [3]: significantly increased; Neurite length per cell ([3]; 6 days of co-culture, control cells 143 ± 16): 212 ± 23 (*) arbitrary units; Total neurite length ([3]; 6 days of co-culture, control cells 6865 ± 633): 10393 ± 1849 (**) arbitrary units

— patent publication US20190008757A1, “DERMATOLOGICAL OR COSMETIC COMPOSITIONS CONTAINING A POLYPHENOL?ENRICHED EXTRACT OF VITEX NEGUNDO” (Laboratoires Expanscience, priority 2016, published 2019)
